Laboratory results taken from patent publication US6452008B2, “Pyridone derivatives and process for preparing the same” (Sumitomo Pharmaceuticals Company, Limited, priority 1998, dated 2002).

Target: T1, ACAT (Rattus norvegicus, UniProt O70536)
T1 construct: The rat peritoneal-derived macrophage was prepared; endogenous in cells; host or cells: rat peritoneal macrophages (primary)
T1 sequence (O70536 1-545): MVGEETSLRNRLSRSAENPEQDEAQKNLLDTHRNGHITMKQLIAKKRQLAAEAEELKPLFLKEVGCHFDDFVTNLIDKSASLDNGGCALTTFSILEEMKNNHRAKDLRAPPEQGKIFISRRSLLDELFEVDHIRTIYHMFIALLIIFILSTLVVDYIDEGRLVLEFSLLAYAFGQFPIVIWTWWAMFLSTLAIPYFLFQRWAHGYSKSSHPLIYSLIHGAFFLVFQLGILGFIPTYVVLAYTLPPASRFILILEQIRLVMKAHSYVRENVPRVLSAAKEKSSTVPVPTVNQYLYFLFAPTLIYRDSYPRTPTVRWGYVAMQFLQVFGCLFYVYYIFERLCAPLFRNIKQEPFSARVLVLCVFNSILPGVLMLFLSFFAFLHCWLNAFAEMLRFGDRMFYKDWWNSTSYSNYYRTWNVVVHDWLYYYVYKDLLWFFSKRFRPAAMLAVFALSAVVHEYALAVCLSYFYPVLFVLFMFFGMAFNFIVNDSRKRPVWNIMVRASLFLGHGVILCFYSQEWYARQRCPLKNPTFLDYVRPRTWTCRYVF
Assay: Assay of ACAT inhibitory activity in the macrophage derived from rat peritoneal
Type: cell-based
Conditions: [9,10-3H]oleic acid, exogenous cholesterol in liposome
Description: 2. Assay of ACAT inhibitory activity in the macrophage derived from rat peritoneal:
The rat peritoneal-derived macrophage was prepared according to the method disclosed in the literature: Biochimica et Biophysica Acta, 1126, 73-80, 1992. The ACAT activity was determined by a modified method of the method disclosed in the above literature: Biochimica et Biophysica Acta, 1126, 73-80, 1992, i.e., using radioactive [9,10-^3H]oleic acid and exogenous cholesterol contained in the liposome which was re-constituted according to the method disclosed in the literature: Biochimica et Biophysica Acta, 1213, 127-134, 1994, and calculated from the radioactivity of the labeled cholesterolyl oleate.

IC50: 16 nM
Structure (SMILES): CCCCn1cc(C)c(-c2cc(C#CCN(CC)CC)ccc2OC)c(NC(=O)Nc2c(C(C)C)cccc2C(C)C)c1=O [Example 18, N-[1-butyl-2-oxo-4-[5-{3-(diethylamino)-1-propynyl}-2-methoxy]phenyl-5-methyl-1,2-dihydropyridin-3-yl]-N′-(2,6-diisopropylphenyl) urea]
